Reference: US20140079836A1, “METHODS AND COMPOSITIONS FOR ALTERING HEALTH, WELLBEING, AND LIFESPAN” (LifeSpan Extension, LLC, priority 2008, published 2014)

Tested on: genes involved in longevity (Array 1)
Test: Custom RT-PCR microarray (Array 1) gene expression in skin fibroblasts, UVB/UVA1
Format: cell-based, human
Settings: for RTC gene expression fold change / PPC gene expression fold change: control well
Description: Seeding of cells: On Day 1, each cell culture was seeded into 6 well cluster dishes at ˜1.5×10^5 cells in 4 mls medium per well. Three wells were seeded per test condition or control.
Experimental phase: On Day 3, wells were washed 1× with 2 mls medium, fed back 2 mls medium without fetal bovine serum and preincubated for 30-60 minutes before challenge with test or control conditions. After the preincubation, medium was aspirated from the wells and 2.5 mls of test or control condition in medium with 1% fetal bovine serum was pipetted into the appropriate wells.
(3) UVA1, UVB exposed and unexposed cells without test condition were used as controls. The experimental phase ended at 24 hours post UV exposure. Cells from each test and control parameter were then prepped for RNA isolation as described below.
UVB/UVA1 exposure: Cells exposed to UV received 200 mJ/cm^2 UVB/1 MED UVA1 using Thermo Oriel solar simulator model SP66923-3056. Cells were exposed from the bottom of the culture dish. The UV dose delivered to the cells was adjusted for interference from the plastic in the culture dish.
Preparation of RNA: The RNA was isolated using the Qiagen RNEasy Plus Mini Kit according to the manufacturer's protocol which can be found on the World Wilde Web at qiagen.com/literature/Defaultaspx?Term=&Language=EN&LiteratureType=4& ProductCategory=10162. The RNA was quantified and examined for purity using the 260/280 nm read method in a μ Quant spectrophotometer before use in the array.
Creation and Performance of a Custom Microarray (“Array 1”): Through the Custom Array design service of Superarray Bioscience Corporation, a 96 well RT-PCR microarray (“Array 1”) was developed to illustrate genetic responses in cells treated as above for specific genes involved in longevity as well as the relevant quality controls. The array was performed in compliance with manufacturer's guidelines and by recommended manufacturer's protocol as can be found on the World Wilde Web at superarray.com/Manual/perarrayplate.pdf
Custom Microarray Results: The results from the microarrays were determined using the delta CT method which uses comparisons of control genes and threshold cycles of genes of interest to generate relative expression values. The full set of experimental conditions was cross referenced and the data is provided herewith in DATA TABLE 3.
Preparation of RNA: The RNA was isolated using the Qiagen RNEasy Plus Mini Kit according to the manufacturer's protocol which can be found on the World Wide Web at qiagen.com/literature/Default. aspx?Term=&Language=EN&LiteratureType=4&ProductCategory=10162.
The RNA was quantified and examined for purity using the 260/280 nm read method in a μ Quant spectrophotometer before use in the array.
Creation and Performance of the Custom Microarray: Through the Custom Array design service of Superarray Bioscience Corporation, a 96 well RT-PCR Microarray was developed to illustrate genetic responses in cells treated as above for specific genes involved in longevity as well as the relevant quality controls. The array was performed in compliance with manufacturer's guidelines and by recommended manufacturer's protocol as can be found on the World Wide Web at superarray.com/Manual/perarrayplate.pdf.
Custom Microarray Results: The results from the microarrays were determined using the delta CT method which uses comparisons of control genes and threshold cycles of genes of interest to generate relative expression values. The full set of experimental conditions was cross referenced and the data is provided herewith in DATA TABLE 4.
Custom Microarray Results: The results from the microarrays were determined using the delta CT method which uses comparisons of control genes and threshold cycles of genes of interest to generate relative expression values. The full set of experimental conditions was cross referenced and the data is provided herewith in DATA TABLE 5. […]

[1] = donor three vs. donor two idebenone + UVB Continuous Incubation
[2] = donor two idebenone + UVB 4 hr Incubation
[3] = donor two idebenone + UVB Continuous Incubation
[4] = donor two idebenone + UVB vs. Green tea + UVB 4 hr Incubation
[5] = donor two idebenone + UVB vs. Green tea + UVB Continuous Incubation

## COC1=C(OC)C(=O)C(CCCCCCCCCCO)=C(C)C1=O [Idebenone, 6-(10-hydroxydecyl)-2,3-dimethoxy-5-methyl-1,4-benzoquin-one]
[1]
  HSPA1A expression fold change: 2.28
  HSPA1B expression fold change: 2.62
  HSPA1L expression fold change: 1.61
  IFI44 expression fold change: −1.43
  IGF1 expression fold change: −1.08
  IGF2 expression fold change: −1.16
  IL1A expression fold change: 2.20
  IL6 expression fold change: 3.97
  IL10 expression fold change: 1.14
  KRAS expression fold change: 1.18
  MAPK14 expression fold change: 1.03
  NADSYN1 expression fold change: 2.28
  NFKB1 expression fold change: 1.56
  NOS2A expression fold change: 1.56
  PARP1 expression fold change: 2.05
  PARP2 expression fold change: −1.48
  PPARG expression fold change: −1.76
  PTGS2 expression fold change: 2.44
  SHC1 expression fold change: 1.67
  SIRT1 expression fold change: −1.04
  SOD1 expression fold change: 2.44
  SOD2 expression fold change: −1.38
  TEP1 expression fold change: 1.31
  TERT expression fold change: 2.13
  TNF expression fold change: 1.40
  TP53 expression fold change: −1.04
[2]
  ACE expression fold change: 1.22
  ACTB expression fold change: −1.01
  APOE expression fold change: 1.03
  BAX expression fold change: 1.40
  BCL2 expression fold change: 1.40
  CASP2 expression fold change: −1.53
  CASP9 expression fold change: 1.27
  CCL4L1 expression fold change: 1.06
  CLK1 expression fold change: −1.24
  COX1 expression fold change: 1.14
  CREBBP expression fold change: 1.10
  CYP19A1 expression fold change: 1.40
  DDC expression fold change: 1.45
  GAPDH expression fold change: −1.95
  GH1 expression fold change: −1.04
  HIGX1A fold change: −1.42
  HLA-DRA expression fold change: 1.22
  HPRT1 expression fold change: 1.03
  HSPA1A expression fold change: 1.06
  HSPA1B expression fold change: 1.56
  HSPA1L expression fold change: 1.40
  IFI44 expression fold change: 2.20
  IGF1 expression fold change: −1.47
  IGF2 expression fold change: 1.06
  IL1A expression fold change: −2.16
  IL6 expression fold change: −11.39
  IL10 expression fold change: 1.14
  KRAS expression fold change: 1.73
  MAPK14 expression fold change: 1.27
  NADSYN1 expression fold change: −1.08
  NFKB1 expression fold change: 2.20
  NOS2A expression fold change: 1.61
  PARP1 expression fold change: 1.92
  PARP2 expression fold change: 1.22
  PPARG expression fold change: 1.18
  PTGS2 expression fold change: 1.61
  SHC1 expression fold change: 2.06
  SIRT1 expression fold change: 1.18
  SOD1 expression fold change: −1.08
  SOD2 expression fold change: 1.27
  TEP1 expression fold change: 1.31
  TERT expression fold change: −1.38
  TNF expression fold change: −1.20
  TP53 expression fold change: −1.64
[3]
  ACE expression fold change: 1.92
  ACTB expression fold change: 1.31
  APOE expression fold change: 1.18
  BAX expression fold change: −1.04
  BCL2 expression fold change: 3.83
  CASP2 expression fold change: 1.14
  CASP9 expression fold change: 2.13
  CCL4L1 expression fold change: 1.40
  CLK1 expression fold change: 1.85
  COX1 expression fold change: −1.43
  CREBBP expression fold change: 1.18
  CYP19A1 expression fold change: 1.31
  DDC expression fold change: 1.85
  GAPDH expression fold change: −1.38
  GH1 expression fold change: 3.01
  HIGX1A fold change: 1.22
  HLA-DRA expression fold change: 2.44
  HPRT1 expression fold change: 5.23
  HSPA1A expression fold change: 1.50
  HSPA1B expression fold change: 3.70
  HSPA1L expression fold change: −2.48
  IFI44 expression fold change: 1.56
  IGF1 expression fold change: 3.45
  IGF2 expression fold change: −1.12
  IL1A expression fold change: 3.57
  IL6 expression fold change: 3.01
  IL10 expression fold change: 2.05
  KRAS expression fold change: 2.13
  MAPK14 expression fold change: 2.44
  NADSYN1 expression fold change: 1.56
  NFKB1 expression fold change: 3.70
  NOS2A expression fold change: 1.98
  PARP1 expression fold change: 1.67
  PARP2 expression fold change: 2.53
  PPARG expression fold change: 3.22
  PTGS2 expression fold change: 2.71
  SHC1 expression fold change: 1.92
  SIRT1 expression fold change: 1.98
  SOD1 expression fold change: 1.10
  SOD2 expression fold change: 1.03
  TEP1 expression fold change: 1.79
  TERT expression fold change: 8.50
  TNF expression fold change: 1.50
  TP53 expression fold change: 1.67
[4]
  ACE expression fold change: 1.32
  ACTB expression fold change: −3.03
  APOE expression fold change: 1.04
  BAX expression fold change: 1.11
  BCL2 expression fold change: 1.19
  CASP2 expression fold change: −1.23
  CASP9 expression fold change: 1.15
  CCL4L1 expression fold change: 10.95
  CLK1 expression fold change: −1.11
  COX1 expression fold change: −1.19
  CREBBP expression fold change: 1.11
  CYP19A1 expression fold change: 11.33
  DDC expression fold change: 14.95
  GAPDH expression fold change: −2.92
  GH1 expression fold change: 8.30
  HIGX1A fold change: 8.30
  HLA-DRA expression fold change: 16.03
  HPRT1 expression fold change: 1.04
  HSPA1A expression fold change: 1.32
  HSPA1B expression fold change: 2.64
  HSPA1L expression fold change: 1.87
  IFI44 expression fold change: 2.15
  IGF1 expression fold change: 4.77
  IGF2 expression fold change: 1.00
  IL1A expression fold change: 1.28
  IL6 expression fold change: −9.83
  IL10 expression fold change: 4.29
  KRAS expression fold change: −1.11
  MAPK14 expression fold change: 1.32
  NADSYN1 expression fold change: −1.19
  NFKB1 expression fold change: −1.03
  NOS2A expression fold change: 17.18
  PARP1 expression fold change: 1.52
  PARP2 expression fold change: 5.87
  PPARG expression fold change: 2.74
  PTGS2 expression fold change: 2.22
  SHC1 expression fold change: 1.11
  SIRT1 expression fold change: 1.63
  SOD1 expression fold change: 1.52
  SOD2 expression fold change: −1.32
  TEP1 expression fold change: 2.55
  TERT expression fold change: 3.37
  TNF expression fold change: 6.98
  TP53 expression fold change: −1.51
[5]
  ACE gene expression fold change: 1.33
  ACTB gene expression fold change: −1.67
  APOE gene expression fold change: 1.16
  BAX gene expression fold change: −1.45
  BCL2 gene expression fold change: −1.10
  CASP2 gene expression fold change: −1.79
  CASP9 gene expression fold change: 1.58
  CCL4L1 gene expression fold change: 4.97
  CLK1 gene expression fold change: 1.01
  COX1 gene expression fold change: −2.53
  CREBBP gene expression fold change: −1.10
  CYP19A1 gene expression fold change: 8.07
  DDC gene expression fold change: 24.46
  GAPDH gene expression fold change: −1.10
  GH1 gene expression fold change: 25.33
  HIGX1A gene expression fold change: 6.12
  HLA-DRA gene expression fold change: 58.18
  HPRT1 gene expression fold change: 2.40
  HSPA1A gene expression fold change: 1.12
  HSPA1B gene expression fold change: 1.16
  HSPA1L gene expression fold change: −1.61
  IFI44 gene expression fold change: 1.29
  IGF1 gene expression fold change: 6.12
  IGF2 gene expression fold change: −1.14
  IL1A gene expression fold change: 10.65
  IL6 gene expression fold change: 1.04
  IL10 gene expression fold change: 4.32
  KRAS gene expression fold change: 1.53
  MAPK14 gene expression fold change: 1.64
  NADSYN1 gene expression fold change: 1.12
  NFKB1 gene expression fold change: 2.24
  NOS2A gene expression fold change: 15.06
  PARP1 gene expression fold change: −1.98
  PARP2 gene expression fold change: 4.48
  PPARG gene expression fold change: 2.16
  PTGS2 gene expression fold change: −1.06
  SHC1 gene expression fold change: 1.48
  SIRT1 gene expression fold change: 1.88
  SOD1 gene expression fold change: −1.56
  SOD2 gene expression fold change: 1.33
  TEP1 gene expression fold change: 1.12
  TERT gene expression fold change: 7.53
  TNF gene expression fold change: 10.29
  TP53 gene expression fold change: 1.88
Donor two idebenone + UVB vs. Green tea + UVB Continuous Incubation, entry r283
  RTC gene expression fold change: 1.08
Donor two idebenone + UVB vs. Green tea + UVB Continuous Incubation, entry r289
  PPC gene expression fold change: −1.67
Donor two idebenone + UVB vs. Green tea + UVB Continuous Incubation, entry r293
  RTC gene expression fold change: 2.09
Donor two idebenone + UVB vs. Green tea + UVB Continuous Incubation, entry r295
  PPC gene expression fold change: −1.35
